Reference: US9932303B2, “N-hydroxymethanesulfonamide nitroxyl donors” (Cardioxyl Pharmaceuticals, Inc., priority 2014, dated 2018)

Key:
[1] = In vitro stability in dog plasma; type: in vitro ADME; conditions: pH 7.4, 37° C.; for half-life at 5 μM: male, read-out: T1/2 (minutes) Dog
Method: (§1) Certain compounds from Table 1 were tested for their stability in plasma. The assay system comprised (i) PBS, or plasma from rat, dog or human (at least 3 donors, male, pooled) at pH 7.4, and (ii) for tests conducted in plasma, an anticoagulant (sodium heparin or sodium citrate). Each test compound (5 μM) was incubated in PBS or plasma at 37° C. on a THERMOMIXER® with shaking Three samples (n=3) were taken at each of seven sampling time points: 0, 10, 30, 60, 90, 180 and 360 minutes. The samples were immediately combined with 3 volumes (i.e., 3 times the volume of PBS or plasma) of acetonitrile containing 1% formic acid and an internal standard to terminate the reaction. AB SCIEX API 3000 LC-MS/MS analysis of the test compounds was performed without a standard curve. Half-lives (T1/2) of the test compounds were determined from graphs of the percent remaining values using the peak area response ratio.

[2] = In vitro stability in human plasma; type: in vitro ADME; conditions: pH 7.4, 37° C.; for half-life at 5 μM: male, read-out: T1/2 (minutes) Human
Method: as §1

[3] = In vitro stability in rat plasma; type: in vitro ADME; conditions: pH 7.4, 37° C.; for half-life at 5 μM: male, read-out: T1/2 (minutes) Rat
Method: as §1

[4] = Nitroxyl production via N2O headspace analysis (GC); conditions: PBS, 37° C.
Source text: Nitrous oxide (N2O) is produced via the dimerization and dehydration of HNO, and is the most common marker for nitroxyl production (Fukuto et al., Chem. Res. Toxicol. 18:790-801 (2005)). […] Using either nitrous oxide gas or Angeli's salt (AS) as a standard, the relative amounts of N2O released from N-hydroxymethanesulfonamide nitroxyl donating compounds was examined via gas chromatography (GC) headspace analysis.
A procedure for determining the relative amounts of N2O released from N-hydroxymethanesulfonamide nitroxyl donating compounds is as follows. GC was performed on an Agilent gas chromatograph equipped with a split injector (10:1 splitting), microelectron capture detector, and a HP-MOLSIV 30 m×0.32 mm×25 μm molecular sieve capillary column. Helium was used as the carrier (4 mL/min) gas and nitrogen was used as the make-up (20 mL/min) gas. […]
All determinations used a batch of nominal 20 mL headspace vials with volumes pre-measured for sample uniformity (actual vial volume varied by ≤2.0% relative standard deviation (n=6)). The average vial volume for the batch was determined from six randomly-selected vials by calculating the weight difference between the capped and sealed empty (i.e., air-filled) vial and the capped and sealed deionized water-filled vial using the known density of deionized water, then averaging. […]

[5] = test system: patients with systolic heart failure; conditions: cited from earlier work

Q: For `CC(c1ccc(Cl)cc1)S(=O)(=O)NO` (centres unmarked) [Compound 27, 1-(4-Chlorophenyl)-N-hydroxyethanesulfonamide], which melting point is on record?
A: The melting point was 129 °C.

Q: What does the source list for `O=S(=O)(Cc1ccccc1Cl)NO` [Compound 4, 1-(2-Chlorophenyl)-N-hydroxymethanesulfonamide]?
A: half-life at 5 μM [1]: 36 min; melting point: 124 °C; half-life at 5 μM [2]: 28 min; half-life at 5 μM [3]: 38 min

Q: With `O=S(=O)(Cc1ccc(F)cc1F)NO` [Compound 8, 1-(2,4-Difluorophenyl)-N-hydroxymethanesulfonamide] as the compound, how does the half-life at 5 μM [1] read?
A: The half-life at 5 μM was 46 min.

Q: And the melting point?
A: Its melting point is 166 °C.

Q: And the half-life at 5 μM [2]?
A: Its half-life at 5 μM is 31 min.

Q: And the half-life at 5 μM [3]?
A: The half-life at 5 μM was 36 min.

Q: For `O=[N+]([O-])c1ccccc1CS(=O)(=O)NO` [Compound 1, N-Hydroxy-1-(2-nitrophenyl)methanesulfonamide], which half-life at 5 μM [1] is on record?
A: The half-life at 5 μM was 26 min.

Q: What about the melting point of the same compound?
A: The melting point was 163 °C.

Q: What about the “Relative N2O Yield (90 minute incubation)” value [4] of the same compound?
A: The value was 37%.

Q: With `O=S(=O)(Cc1cccc(Cl)c1)NO` [Compound 3, 1-(3-Chlorophenyl)-N-hydroxymethanesulfonamide] as the compound, how does the half-life at 5 μM [1] read?
A: The half-life at 5 μM was 70 min.

Q: And the melting point?
A: The melting point was 150 °C.

Q: What about the half-life at 5 μM [2] of the same compound?
A: Its half-life at 5 μM is 52 min.

Q: And the half-life at 5 μM [3]?
A: The half-life at 5 μM was 40 min.

Q: For `O=S(=O)(Cc1cc(F)ccc1F)NO` [Compound 9, 1-(2,5-Difluorophenyl)-N-hydroxymethanesulfonamide], which half-life at 5 μM [1] is on record?
A: The half-life at 5 μM was 30 min.

Q: What about the melting point of the same compound?
A: The melting point was 125 °C.

Q: With `O=S(=O)(Cc1noc2ccccc12)NO` [Compound 22, 1-1,2-Benzoxazol-3-yl-N-hydroxymethanesulfonamide] as the compound, how does the half-life at 5 μM [1] read?
A: The half-life at 5 μM was 21 min.

Q: What about the melting point of the same compound?
A: The melting point was 143 °C.

Q: And the half-life at 5 μM [2]?
A: The half-life at 5 μM was 25 min.

Q: And the half-life at 5 μM [3]?
A: Its half-life at 5 μM is 18 min.

Q: Which results are given for `O=S(=O)(Cc1ccc(Br)cc1)NO` [Compound 16, 1-(4-Bromophenyl)-N-hydroxymethanesulfonamide]?
A: half-life at 5 μM [1]: 42 min; melting point: 160 °C

Q: Which results are given for `O=S(=O)(Cc1ccccc1F)NO` [Compound 14, 1-(2-Fluorophenyl)-N-hydroxymethanesulfonamide]?
A: half-life at 5 μM [1]: 31 min; melting point: 118 °C

Q: With `O=S(=O)(Cc1ccc2oncc2c1)NO` [Compound 26, 1-(Benzo[d]isoxazol-5-yl)-N-hydroxymethanesulfonamide] as the compound, how does the melting point read?
A: Its melting point is 117 °C.

Q: With `O=S(=O)(NO)C1(c2ccc(Cl)cc2)CC1` [Compound 29, 1-(4-Chlorophenyl)-N-hydroxycyclopropane-1-sulfonamide] as the compound, how does the melting point read?
A: Its melting point is 138 °C.

Q: For `O=S(=O)(Cc1c(F)cccc1Cl)NO` [Compound 19, 1-(2-Chloro-6-fluorophenyl)-N-hydroxymethanesulfonamide], which melting point is on record?
A: The melting point was 127 °C.

Q: With `Cc1cccc(CS(=O)(=O)NO)c1` [Compound 5, N-Hydroxy-1-(3-methylphenyl)methanesulfonamide] as the compound, how does the half-life at 5 μM [1] read?
A: The half-life at 5 μM was 55 min.

Q: What about the melting point of the same compound?
A: The melting point was 98 °C.

Q: What about the half-life at 5 μM [2] of the same compound?
A: The half-life at 5 μM was 81 min.

Q: What about the half-life at 5 μM [3] of the same compound?
A: The half-life at 5 μM was 61 min.

Q: Which results are given for `O=S(=O)(Cc1ccc(Cl)cc1Cl)NO` [Compound 11, 1-(2,4-Dichlorophenyl)-N-hydroxymethanesulfonamide]?
A: half-life at 5 μM [1]: 45 min; melting point: 158 °C

Q: For `O=S(=O)(Cc1cccc(Br)c1)NO` [Compound 15, 1-(3-Bromophenyl)-N-hydroxymethanesulfonamide], which half-life at 5 μM [1] is on record?
A: The half-life at 5 μM was 45 min.

Q: And the melting point?
A: The melting point was 161 °C.

Q: For `O=S(=O)(Cc1ccc(C(F)(F)F)cc1)NO` [Compound 18, N-Hydroxy-1-[4-(trifluoromethyl)phenyl]methanesulfonamide], which half-life at 5 μM [1] is on record?
A: The half-life at 5 μM was 74 min.

Q: And the melting point?
A: The melting point was 156 °C.

Q: What about the half-life at 5 μM [2] of the same compound?
A: Its half-life at 5 μM is 33 min.

Q: And the half-life at 5 μM [3]?
A: The half-life at 5 μM was 42 min.

Q: What does the source list for `O=S(=O)(Cc1cc(Cl)ccc1Cl)NO` [Compound 10, 1-(2,5-Dichlorophenyl)-N-hydroxymethanesulfonamide]?
A: half-life at 5 μM [1]: 27 min; melting point: 158 °C; half-life at 5 μM [2]: 12 min; half-life at 5 μM [3]: 12 min

Q: For `O=S(=O)(Cc1c(Cl)cccc1Cl)NO` [Compound 21, 1-(2,6-Dichlorophenyl)-N-hydroxymethanesulfonamide], which melting point is on record?
A: Its melting point is 140 °C.

Q: For `CS(=O)(=O)c1ccccc1S(=O)(=O)NO` [CXL-1020, N-hydroxy-2-methanesulfonylbenzene-1-sulfonamide], which side effects ([5]; at threshold doses needed to produce hemodynamic effects, intravenous) is on record?
A: The side effects was “unacceptable levels of inflammatory irritation at and distal to the intravenous insertion site”.

Q: What about the hemodynamic effects ([5]; patients with systolic heart failure, intravenously as an aqueous solution at pH=4) of the same compound?
A: The hemodynamic effects was “reduced both left and right heart filling pressures and systemic vascular resistance, while increasing cardiac and stroke volume index”.

Q: Which half-life at 5 μM [1] does the source give for `O=S(=O)(Cc1cccc(F)c1)NO` [Compound 13, 1-(3-Fluorophenyl)-N-hydroxymethanesulfonamide] here?
A: Its half-life at 5 μM is 42 min.

Q: And the melting point?
A: The melting point was 109 °C.

Q: For `O=S(=O)(Cc1cccc(C(F)(F)F)c1)NO` [Compound 17, N-Hydroxy-1-[3-(trifluoromethyl)phenyl]methanesulfonamide], which half-life at 5 μM [1] is on record?
A: Its half-life at 5 μM is 29 min.

Q: And the melting point?
A: The melting point was 132 °C.

Q: Which results are given for `O=S(=O)(Cc1ccccc1C(F)(F)F)NO` [Compound 7, N-Hydroxy-1-[2-(trifluoromethyl)phenyl]methanesulfonamide]?
A: half-life at 5 μM [1]: 25 min; melting point: 123 °C

Q: What does the source list for `O=S(=O)(Cc1ccc(F)cc1)NO` [Compound 6, 1-(4-Fluorophenyl)-N-hydroxymethanesulfonamide]?
A: half-life at 5 μM [1]: 34 min; melting point: 158 °C

Q: With `O=S(=O)(Cc1cc(F)cc(F)c1)NO` [Compound 20, 1-(3,5-Difluorophenyl)-N-hydroxymethanesulfonamide] as the compound, how does the half-life at 5 μM [1] read?
A: Its half-life at 5 μM is 33 min.

Q: And the melting point?
A: The melting point was 136 °C.

Q: Which “T1/2 (minutes) Dog” value ([1]; 5 μM) does the source give for `CC(C)(c1ccc(Cl)cc1)S(=O)(=O)NO` [Compound 28, 2-(4-Chlorophenyl)-N-hydroxypropane-2-sulfonamide] here?
A: The value was 26 min.

Q: And the “T1/2 (minutes) Human” value ([2]; 5 μM)?
A: The value was 37 min.

Q: What about the “T1/2 (minutes) Rat” value ([3]; 5 μM) of the same compound?
A: The value was 48 min.

Q: With `O=S(=O)(Cc1ccc(Cl)c(Cl)c1)NO` [Compound 12, 1-(3,4-Dichlorophenyl)-N-hydroxymethanesulfonamide] as the compound, how does the half-life at 5 μM [1] read?
A: Its half-life at 5 μM is 60 min.

Q: What about the melting point of the same compound?
A: The melting point was 175 °C.

Q: And the half-life at 5 μM [2]?
A: The half-life at 5 μM was 34 min.

Q: What about the half-life at 5 μM [3] of the same compound?
A: The half-life at 5 μM was 54 min.
